Measured values published in patent US7026487B2, “Amines substituted with a dihydronaphthalenyl, chromenyl, or thiochromenyl group, a pyridyl group and an alkyl group, having retinoid-like biological activity” (Allergan, Inc., priority 2000, dated 2006).

Key:
RXRβ [1] = target: T1, RXRβ (UniProt P28704); assay: ligand binding assay, RXRβ; details: read-out: RXR Bind Ki (nM) β
T1 sequence (P28704 1-520): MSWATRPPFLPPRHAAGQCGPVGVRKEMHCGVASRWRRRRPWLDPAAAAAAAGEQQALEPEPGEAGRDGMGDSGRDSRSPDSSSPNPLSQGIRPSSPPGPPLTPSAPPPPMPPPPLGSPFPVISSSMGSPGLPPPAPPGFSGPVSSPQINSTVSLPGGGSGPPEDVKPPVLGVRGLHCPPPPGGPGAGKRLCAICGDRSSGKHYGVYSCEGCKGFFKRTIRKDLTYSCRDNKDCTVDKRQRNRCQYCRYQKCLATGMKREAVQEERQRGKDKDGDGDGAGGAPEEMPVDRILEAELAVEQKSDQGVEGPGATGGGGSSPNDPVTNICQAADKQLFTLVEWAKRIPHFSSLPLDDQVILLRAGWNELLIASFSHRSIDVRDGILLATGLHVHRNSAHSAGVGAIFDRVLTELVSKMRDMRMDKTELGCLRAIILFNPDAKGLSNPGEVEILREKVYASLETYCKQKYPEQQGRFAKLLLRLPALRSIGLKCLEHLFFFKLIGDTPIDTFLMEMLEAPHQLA
From the text: (§2) The results obtained in this assay are expressed in EC50 numbers, as they are also in the chimeric receptor transactivation assay. The results of ligand binding assay are expressed in Kd numbers.
(§3) Particularly, the transactivation data pertaining to RAR receptors were obtained in the chimeric assay, and the data pertaining to transactivation of RXR receptors were obtained in the holoreceptor transactivation assay.

RXRγ [2] = target: T2, RXRγ (UniProt P28705); assay: holoreceptor transactivation assay, RXRγ; format: cell-based; details: NA = Not Active, read-out: RXR Trans. EC50 (nM) γ
T2 sequence (P28705 1-463): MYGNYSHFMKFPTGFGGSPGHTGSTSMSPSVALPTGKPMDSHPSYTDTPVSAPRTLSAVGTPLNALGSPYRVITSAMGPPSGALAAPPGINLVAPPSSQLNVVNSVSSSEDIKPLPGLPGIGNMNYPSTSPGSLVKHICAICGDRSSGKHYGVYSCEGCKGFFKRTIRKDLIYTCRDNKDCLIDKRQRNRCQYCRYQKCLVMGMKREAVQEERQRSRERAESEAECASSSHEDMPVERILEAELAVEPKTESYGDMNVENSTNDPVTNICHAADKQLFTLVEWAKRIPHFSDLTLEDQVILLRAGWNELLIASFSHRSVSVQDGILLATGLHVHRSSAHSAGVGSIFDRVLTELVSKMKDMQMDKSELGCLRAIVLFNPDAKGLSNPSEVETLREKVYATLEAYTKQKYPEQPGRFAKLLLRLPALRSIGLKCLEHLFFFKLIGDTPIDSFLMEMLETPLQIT
From the text: (§4) The results obtained in this assay are expressed in EC50 numbers, as they are also in the chimeric receptor transactivation assay.

RXRγ [3] = target: T2, RXRγ; assay: ligand binding assay, RXRγ; details: read-out: RXR Bind Ki (nM) γ
From the text: as §2, §3

RXRβ [4] = target: T1, RXRβ; assay: holoreceptor transactivation assay, RXRβ; format: cell-based; details: NA = Not Active, read-out: RXR Trans. EC50 (nM) β
From the text: as §4

RARγ = RARγ (Homo sapiens, UniProt P13631); assay: chimeric receptor transactivation assay, RARγ; format: cell-based; details: NA = Not Active, read-out: RAR Trans. EC50 (nM) γ
From the text: (§1) The specification of U.S. Pat. No. 5,455,265 is hereby expressly incorporated by reference.

RARβ = RARβ (Homo sapiens, UniProt P10826); assay: chimeric receptor transactivation assay, RARβ; format: cell-based; details: NA = Not Active, read-out: RAR Trans. EC50 (nM) β
From the text: as §1

Chain of RARβ (P19793 whole entry): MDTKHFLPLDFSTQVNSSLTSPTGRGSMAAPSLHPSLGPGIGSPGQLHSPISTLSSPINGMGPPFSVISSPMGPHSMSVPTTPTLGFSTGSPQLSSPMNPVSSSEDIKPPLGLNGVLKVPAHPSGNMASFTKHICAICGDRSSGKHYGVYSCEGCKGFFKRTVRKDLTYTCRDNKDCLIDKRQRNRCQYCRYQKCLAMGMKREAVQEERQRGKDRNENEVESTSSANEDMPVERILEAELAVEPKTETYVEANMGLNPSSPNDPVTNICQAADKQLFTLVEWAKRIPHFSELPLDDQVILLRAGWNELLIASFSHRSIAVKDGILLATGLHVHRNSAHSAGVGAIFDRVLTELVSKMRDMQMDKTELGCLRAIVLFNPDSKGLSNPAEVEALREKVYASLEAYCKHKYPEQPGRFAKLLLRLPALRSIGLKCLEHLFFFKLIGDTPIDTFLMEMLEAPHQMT
Chain of RARβ (P10826 154-455): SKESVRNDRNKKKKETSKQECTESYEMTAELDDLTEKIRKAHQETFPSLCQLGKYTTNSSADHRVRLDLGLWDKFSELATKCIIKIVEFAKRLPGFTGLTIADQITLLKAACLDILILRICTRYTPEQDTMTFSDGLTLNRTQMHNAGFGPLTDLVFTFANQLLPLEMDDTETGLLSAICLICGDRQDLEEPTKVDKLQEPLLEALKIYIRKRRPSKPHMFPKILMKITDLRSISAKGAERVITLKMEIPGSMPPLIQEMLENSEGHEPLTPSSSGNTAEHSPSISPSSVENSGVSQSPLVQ
Chain of RARγ (P13631 whole entry): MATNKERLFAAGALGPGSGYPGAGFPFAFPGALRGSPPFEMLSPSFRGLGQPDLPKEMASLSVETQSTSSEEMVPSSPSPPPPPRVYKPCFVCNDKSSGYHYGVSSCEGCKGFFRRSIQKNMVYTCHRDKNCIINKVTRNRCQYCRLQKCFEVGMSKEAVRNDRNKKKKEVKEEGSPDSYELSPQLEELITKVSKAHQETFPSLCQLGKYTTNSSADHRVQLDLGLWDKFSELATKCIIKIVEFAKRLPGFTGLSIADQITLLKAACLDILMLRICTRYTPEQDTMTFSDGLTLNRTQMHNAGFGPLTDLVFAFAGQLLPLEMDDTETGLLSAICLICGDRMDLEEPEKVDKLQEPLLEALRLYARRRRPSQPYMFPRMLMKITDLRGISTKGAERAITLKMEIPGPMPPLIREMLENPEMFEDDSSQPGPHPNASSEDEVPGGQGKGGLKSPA
Chain of RARγ (P19793 whole entry, further chain): as the sequence (P19793 whole entry) above

Structure (SMILES)	Ki (RXRβ [1]) [nM]	EC50 (RXRβ [4]) [nM]	other results
CC1=CCC(C)(C)c2cc(N(C)c3ccc(C(=O)O)cc3)c(C)cc21 [Compound 44, 4-[Methyl(3,5,8,8-tetramethyl-7,8-dihydronaphthalen-2-yl)amino]benzoic acid]	> 1000	–	EC50 (RXRγ [2]): > 1000 nM; Ki (RXRγ [3]): > 1000 nM
CCN(c1ccc(C(=O)O)cc1)c1cc2c(cc1C)C(C)=CCC2(C)C [Compound 45, 4-[Ethyl(3,5,8,8-tetramethyl-7,8-dihydronaphthalen-2-yl)amino]benzoic acid]	> 1000	–	EC50 (RXRγ [2]): > 1000 nM; Ki (RXRγ [3]): > 1000 nM
CCCN(c1ccc(C(=O)O)cc1)c1cc2c(cc1C)C(C)=CCC2(C)C [Compound 46, 4-[n-Propyl(3,5,8,8-tetramethyl-7,8-dihydronaphthalen-2-yl)amino]benzoic acid]	> 10000	> 1000	Ki (RXRγ [3]): > 10000 nM
CC1=CCC(C)(C)c2cc(N(CC3CC3)c3ccc(C(=O)O)cc3)c(C)cc21 [Compound 47, 4-[Cyclopropylmethyl(3,5,8,8-tetramethyl-7,8-dihydronaphthalen-2-yl)amino]benzoic acid]	> 1000	–	–
Cc1cc2c(cc1N(C)c1ccc(C(=O)O)cc1)C(C)(C)CC=C2C(C)C [Compound 52, 4-[Methyl-(5-isopropyl-3,8,8-trimethyl-7,8-dihydronaphthalen-2-yl)amino]benzoic acid]	–	> 1000	–
CCN(c1ccc(C(=O)O)cc1)c1cc2c(cc1C)C(C(C)C)=CCC2(C)C [Compound 53]	> 1000	> 1000	–
CCCN(c1ccc(C(=O)O)cc1)c1cc2c(cc1C)C(C(C)C)=CCC2(C)C [Compound 54, 4-[n-Propyl-(5-isopropyl-3,8,8-trimethyl-7,8-dihydronaphthalen-2-yl)lamino]benzoic acid]	> 1000	> 1000	–
CC1=CCC(C)(C)c2cc(N(C)c3ccc(C(=O)O)cc3)ccc21 [Compound 67, 4-[Methyl-(5,8,8-trimethyl-7,8-dihydro-naphthalen-2-yl)-amino]-benzoic acid]	> 1000	–	–
C=CCN(c1ccc(C(=O)O)cc1)c1ccc2c(c1)C(C(C)(C)C)=CCC2(C)C [Compound 90, 4-[(8-t-Butyl-5,5-dimethyl-5,6-dihydronaphthalen-2-yl)(prop-2-en-yl)lamino]-benzoic acid]	–	–	EC50 (RARγ): > 1000 nM; EC50 (RARβ): > 1000 nM
CCCCCCOc1cc2c(cc1N(CCC)c1ccc(C(=O)O)cc1)C(C)=CCC2(C)C [Compound 145, 4-[(3-n-Hexyloxy-5,5,8-trimethyl-5,6-dihydronaphthalen-2-yl)-n-propylamino]benzoic acid]	–	–	EC50 (RXRγ [2]): > 1000 nM
CCCN(c1ccc(C(=O)O)cc1)c1cc2c(cc1OCc1ccccc1)C(C)(C)CC=C2C(C)C [Compound 157]	–	–	EC50 (RARβ): > 1000 nM
